Drawing on patent US20190202840A1, “SALTS OF (S)-7-(1-(9H-PURIN-6-YLAMINO)ETHYL)-6-(3-FLUOROPHENYL)-3-METHYL-5H-THIAZOLO[3,2-A]PYRIMIDIN-5-ONE” (Incyte Corporation, priority 2015, published 2019), this text covers IC50 and JAK2/JAK1 for 21 compounds.

One assay has as its target T1, human JAK1 (Homo sapiens, UniProt P23458).
T1 construct: human JAK1 (a.a. 837-1142); made in house; host or cells: insect cells (baculovirus)
The experiment in a line: In vitro JAK kinase assay (Example G, HTRF), JAK1. It counts as biochemical. The settings on record: 1 mM ATP.

Another assay concerns the target T2, human JAK2 (Homo sapiens, UniProt O60674).
T2 construct: JAK2 (a.a. 828-1132); made in house; host or cells: insect cells (baculovirus)
The experiment in a line: In vitro JAK kinase assay (Example G, HTRF), JAK2. It is filed as biochemical. The settings on record: ratio of IC50s JAK2 over JAK1, 1 mM ATP.

T2 sequence (O60674 828-1132): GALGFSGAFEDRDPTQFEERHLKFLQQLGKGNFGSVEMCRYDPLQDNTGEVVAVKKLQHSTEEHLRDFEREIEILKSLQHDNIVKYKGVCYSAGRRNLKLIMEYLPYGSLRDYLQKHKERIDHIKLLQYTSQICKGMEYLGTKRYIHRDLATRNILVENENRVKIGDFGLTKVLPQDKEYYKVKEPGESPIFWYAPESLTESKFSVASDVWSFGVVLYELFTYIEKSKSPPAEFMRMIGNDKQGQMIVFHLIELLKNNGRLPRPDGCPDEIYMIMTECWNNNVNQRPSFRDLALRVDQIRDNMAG
T1 sequence (P23458 849-1154): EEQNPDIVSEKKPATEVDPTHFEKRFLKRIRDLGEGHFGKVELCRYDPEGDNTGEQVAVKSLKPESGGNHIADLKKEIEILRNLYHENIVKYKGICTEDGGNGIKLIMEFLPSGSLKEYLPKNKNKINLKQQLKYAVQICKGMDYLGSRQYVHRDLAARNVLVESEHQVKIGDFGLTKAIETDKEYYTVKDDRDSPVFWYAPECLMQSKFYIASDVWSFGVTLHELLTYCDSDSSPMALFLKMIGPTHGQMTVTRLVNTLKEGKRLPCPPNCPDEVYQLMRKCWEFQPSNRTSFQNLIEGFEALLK

One may read the IC50 as the point on the concentration scale where inhibition reaches its midpoint. High values mean a need for much substance, low ones inhibition by little substance. Turning to `N#CCC1(n2cc(-c3ncnc4[nH]ccc34)cn2)CN(C2CCN(C(=O)Nc3ccc(F)cc3C(F)(F)F)CC2)C1` [Compound 8, 4-{3-(Cyanomethyl)-3-[4-(7H-pyrrolo[2,3-d]pyrimidin-4-yl)-1H-pyrazol-1-yl]azetidin-1-yl}-N-[4-fluoro-2-(trifluoromethyl)phenyl]piperidine-1-carboxamide], the IC50 at human JAK1 is < 10 nM. The JAK2/JAK1 on human JAK2 is given as >10.

In the case of `N#CCC(CN1CCN(C(=O)c2ccc(C#N)cc2F)CC1)n1ccc(-c2ncnc3[nH]ccc23)c1` (stereo not drawn) [Compound 6, 4-[(4-{3-cyano-2-[3-(7H-pyrrolo[2,3-d]pyrimidin-4-yl)-1H-pyrrol-1-yl]propyl}piperazin-1-yl)carbonyl]-3-fluorobenzonitrile], the IC50 against human JAK1 is < 10 nM. Besides, the JAK2/JAK1 on human JAK2 is reported as >10.

On to `CCNCc1cc(O[C@H]2CC[C@@H](N3CC(CC#N)(n4cc(-c5ncnc6[nH]ccc56)cn4)C3)CC2)nc(C(F)(F)F)c1` [Compound 19, {1-(cis-4-{[4-[(ethylamino)methyl]-6-(trifluoromethyl)pyridin-2-yl]oxy}cyclohexyl)-3-[4-(7H-pyrrolo[2,3-d]pyrimidin-4-yl)-1H-pyrazol-1-yl]azetidin-3-yl}acetonitrile], for which the IC50 at human JAK1 is < 10 nM. At human JAK2, the JAK2/JAK1 is on record as >10.

On to `N#CC[C@]1(n2cc(-c3ncnc4[nH]ccc34)cn2)C[C@H](N2CCN(C(=O)c3ccnc(C(F)(F)F)n3)CC2)C1` [Compound 10, [trans-1-[4-(7H-pyrrolo[2,3-d]pyrimidin-4-yl)-1H-pyrazol-1-yl]-3-(4-{[2-(trifluoromethyl)pyrimidin-4-yl]carbonyl}piperazin-1-yl)cyclobutyl]acetonitrile], for which, on human JAK1, the IC50 is < 10 nM. The JAK2/JAK1 at human JAK2 is on record as >10.

Consider `N#CCC(C1CCN(c2cccc(Cl)n2)C1)n1cc(-c2ncnc3[nH]ccc23)cn1` (single isomer, unassigned) [Compound 3, 3-[1-(6-chloropyridin-2-yl)pyrrolidin-3-yl]-3-[4-(7H-pyrrolo[2,3-d]pyrimidin-4-yl)-1H-pyrazol-1-yl]propanenitrile], for which, at human JAK1, the IC50 is < 10 nM. The JAK2/JAK1 on human JAK2 is >10.

Take `N#CC[C@]1(n2cc(-c3ncnc4[nH]ccc34)cn2)C[C@H](N2CCC(Oc3cc(CN4CCC[C@H]4CO)cc(C(F)(F)F)n3)CC2)C1` [Compound 12, {trans-3-(4-{[4-{[(2S)-2-(hydroxymethyl)pyrrolidin-1-yl]methyl}-6-(trifluoromethyl)pyridin-2-yl]oxy}piperidin-1-yl)-1-[4-(7H-pyrrolo[2,3-d]pyrimidin-4-yl)-1H-pyrazol-1-yl]cyclobutyl}acetonitrile]: the IC50 at human JAK1 is < 10 nM. The JAK2/JAK1 on human JAK2 is given as >10.

Turning to `N#CCC1(n2cc(-c3ncnc4[nH]ccc34)cn2)CN([C@H]2CC[C@@H](Oc3cc(CCO)nc(C(F)(F)F)n3)CC2)C1` [Compound 18, {1-(cis-4-{[6-(2-hydroxyethyl)-2-(trifluoromethyl)pyrimidin-4-yl]oxy}cyclohexyl)-3-[4-(7H-pyrrolo[2,3-d]pyrimidin-4-yl)-1H-pyrazol-1-yl]azetidin-3-yl}acetonitrile], the IC50 at human JAK1 was < 10 nM. For the same compound, the JAK2/JAK1 on human JAK2 is listed as >10.

For `N#CC[C@]1(n2cc(-c3ncnc4[nH]ccc34)cn2)C[C@H](N2CCC(Oc3cc(CN4CC(O)C4)cc(C(F)(F)F)n3)CC2)C1` [Compound 11, {trans-3-(4-{[4-[(3-hydroxyazetidin-1-yl)methyl]-6-(trifluoromethyl)pyridin-2-yl]oxy}piperidin-1-yl)-1-[4-(7H-pyrrolo[2,3-d]pyrimidin-4-yl)-1H-pyrazol-1-yl]cyclobutyl}acetonitrile], on human JAK1, the IC50 was < 10 nM. Also, the JAK2/JAK1 at human JAK2 was >10.

For the compound `N#CC[C@]1(n2cc(-c3ncnc4[nH]ccc34)cn2)C[C@H](N2CCC(Oc3cc(CCO)cc(C(F)(F)F)n3)CC2)C1` [Compound 26, {trans-3-(4-{[4-(2-hydroxyethyl)-6-(trifluoromethyl)pyridin-2-yl]oxy}piperidin-1-yl)-1-[4-(7H-pyrrolo[2,3-d]pyrimidin-4-yl)-1H-pyrazol-1-yl]cyclobutyl}acetonitrile], the IC50 on human JAK1 is < 10 nM. In addition, the JAK2/JAK1 on human JAK2 is on record as >10.

Take `N#CCC1(n2cc(-c3ncnc4[nH]ccc34)cn2)CN([C@H]2CC[C@@H](Oc3cc(CN4CC[C@@H](O)C4)cc(C(F)(F)F)n3)CC2)C1` [Compound 21, {1-(cis-4-{[4-{[(3R)-3-hydroxypyrrolidin-1-yl]methyl}-6-(trifluoromethyl)pyridin-2-yl]oxy}cyclohexyl)-3-[4-(7H-pyrrolo[2,3-d]pyrimidin-4-yl)-1H-pyrazol-1-yl]azetidin-3-yl}acetonitrile]: the IC50 against human JAK1 was < 10 nM. Moreover, the JAK2/JAK1 at human JAK2 is >10.

Regarding `C[C@H](NC(=O)c1cc(F)c(N2CC(CC#N)(n3cc(-c4ncnc5[nH]ccc45)cn3)C2)cc1F)C(F)(F)F` [Compound 16, 4-{3-(cyanomethyl)-3-[4-(7H-pyrrolo[2,3-d]pyrimidin-4-yl)-1H-pyrazol-1-yl]azetidin-1-yl}-2,5-difluoro-N-[(1S)-2,2,2-trifluoro-1-methylethyl]benzamide], the IC50 at human JAK1 is < 10 nM. Further, on human JAK2, the JAK2/JAK1 is >10.

With `C[C@H](O)CNCc1cc(OC2CCN([C@H]3C[C@](CC#N)(n4cc(-c5ncnc6[nH]ccc56)cn4)C3)CC2)nc(C(F)(F)F)c1` [Compound 25, {trans-3-(4-{[4-({[(2S)-2-hydroxypropyl]amino}methyl)-6-(trifluoromethyl)pyridin-2-yl]oxy}piperidin-1-yl)-1-[4-(7H-pyrrolo[2,3-d]pyrimidin-4-yl)-1H-pyrazol-1-yl]cyclobutyl}acetonitrile], at human JAK1, the IC50 was < 10 nM. The JAK2/JAK1 on human JAK2 is on record as >10.

For the compound `N#CC[C@]1(n2cc(-c3ncnc4[nH]ccc34)cn2)C[C@H](N2CCC(Oc3cc(CN4CCC[C@@H]4CO)cc(C(F)(F)F)n3)CC2)C1` [Compound 13, {trans-3-(4-{[4-{[(2R)-2-(hydroxymethyl)pyrrolidin-1-yl]methyl}-6-(trifluoromethyl)pyridin-2-yl]oxy}piperidin-1-yl)-1-[4-(7H-pyrrolo[2,3-d]pyrimidin-4-yl)-1H-pyrazol-1-yl]cyclobutyl}acetonitrile], at human JAK1, the IC50 is < 10 nM. In addition, at human JAK2, the JAK2/JAK1 is recorded as >10.

In the case of `C[C@@H](CO)NCc1cc(OC2CCN([C@H]3C[C@](CC#N)(n4cc(-c5ncnc6[nH]ccc56)cn4)C3)CC2)nc(C(F)(F)F)c1` [Compound 23, {trans-3-(4-{[4-({[(1S)-2-hydroxy-1-methylethyl]amino}methyl)-6-(trifluoromethyl)pyridin-2-yl]oxy}piperidin-1-yl)-1-[4-(7H-pyrrolo[2,3-d]pyrimidin-4-yl)-1H-pyrazol-1-yl]cyclobutyl}acetonitrile], the IC50 at human JAK1 was < 10 nM. Moreover, on human JAK2, the JAK2/JAK1 is >10.

For the compound `N#CCC1(n2cc(-c3ncnc4[nH]ccc34)cn2)CN(C2CCN(C(=O)c3ccnc(C(F)(F)F)c3F)CC2)C1` [Compound 7, {1-{1-[3-Fluoro-2-(trifluoromethyl)isonicotinoyl]piperidin-4-yl}-3-[4-(7H-pyrrolo[2,3-d]pyrimidin-4-yl)-1H-pyrazol-1-yl]azetidin-3-yl}acetonitrile], the IC50 at human JAK1 is < 10 nM. In addition, the JAK2/JAK1 on human JAK2 is >10.

Consider `C[C@@H](O)c1nc2cnc3ccsc3c2n1[C@H]1CC[C@H](CC#N)OC1` [Compound 1, ((2R,5S)-5-{2-[(1R)-1-hydroxyethyl]-1H-imidazo[4,5-d]thieno[3,2-b]pyridin-1-yl}tetrahydro-2H-pyran-2-yl)acetonitrile], for which the IC50 at human JAK1 is < 100 nM. Moreover, the JAK2/JAK1 on human JAK2 is on record as >10.

Turning to `CC(C)(O)c1cc(O[C@H]2CC[C@@H](N3CC(CC#N)(n4cc(-c5ncnc6[nH]ccc56)cn4)C3)CC2)nc(C(F)(F)F)c1` [Compound 20, {1-(cis-4-{[4-(1-hydroxy-1-methylethyl)-6-(trifluoromethyl)pyridin-2-yl]oxy}cyclohexyl)-3-[4-(7H-pyrrolo[2,3-d]pyrimidin-4-yl)-1H-pyrazol-1-yl]azetidin-3-yl}acetonitrile], the IC50 on human JAK1 is < 10 nM. In addition, the JAK2/JAK1 at human JAK2 is recorded as >10.

Consider `N#CCC1(n2cc(-c3ncnc4[nH]ccc34)cn2)CN(C2CCN(C(=O)c3ccnc(C(F)(F)F)n3)CC2)C1` [Compound 9, [3-[4-(7H-pyrrolo[2,3-d]pyrimidin-4-yl)-1H-pyrazol-1-yl]-1-(1-{[2-(trifluoromethyl)pyrimidin-4-yl]carbonyl}piperidin-4-yl)azetidin-3-yl]acetonitrile], for which, on human JAK1, the IC50 was < 10 nM. On human JAK2, the JAK2/JAK1 was >10.

As to `N#CCC(CN1CCN(C(=O)c2ccc(C#N)cc2F)CC1)n1cc(-c2ncnc3[nH]ccc23)cn1` (stereo not drawn) [Compound 5, 4-[(4-{3-cyano-2-[4-(7H-pyrrolo[2,3-d]pyrimidin-4-yl)-1H-pyrazol-1-yl]propyl}piperazin-1-yl)carbonyl]-3-fluorobenzonitrile], the IC50 at human JAK1 is < 10 nM. Also, the JAK2/JAK1 at human JAK2 is listed as >10.

In the case of `C[C@@H](O)CNCc1cc(OC2CCN([C@H]3C[C@](CC#N)(n4cc(-c5ncnc6[nH]ccc56)cn4)C3)CC2)nc(C(F)(F)F)c1` [Compound 24, {trans-3-(4-{[4-({[(2R)-2-hydroxypropyl]amino}methyl)-6-(trifluoromethyl)pyridin-2-yl]oxy}piperidin-1-yl)1-[4-(7H-pyrrolo[2,3-d]pyrimidin-4-yl)-1H-pyrazol-1-yl]cyclobutyl}acetonitrile], the IC50 on human JAK1 is < 10 nM. For the same compound, the JAK2/JAK1 at human JAK2 is recorded as >10.

In the case of `N#CCC1(n2cc(-c3ncnc4[nH]ccc34)cn2)CN([C@H]2CC[C@@H](Oc3cc(CN4CC[C@H](O)C4)cc(C(F)(F)F)n3)CC2)C1` [Compound 22, {1-(cis-4-{[4-{[(3S)-3-hydroxypyrrolidin-1-yl]methyl}-6-(trifluoromethyl)pyridin-2-yl]oxy}cyclohexyl)-3-[4-(7H-pyrrolo[2,3-d]pyrimidin-4-yl)-1H-pyrazol-1-yl]azetidin-3-yl}acetonitrile], the IC50 on human JAK1 was < 10 nM. In addition, the JAK2/JAK1 on human JAK2 is >10.
